Test results published in ChEMBL document CHEMBL5500414 (J Med Chem, 2024).

What was measured:
BCL2A1/BID [1] = target: T1, BCL2A1/BID (Homo sapiens, UniProt Q16548)
T1 sequence (Q16548 whole entry): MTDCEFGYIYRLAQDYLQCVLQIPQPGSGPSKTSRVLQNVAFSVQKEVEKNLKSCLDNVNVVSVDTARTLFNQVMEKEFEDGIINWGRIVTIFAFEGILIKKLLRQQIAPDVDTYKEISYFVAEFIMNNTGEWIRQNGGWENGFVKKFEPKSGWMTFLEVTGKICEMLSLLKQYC
T1 sequence (P55957 whole entry): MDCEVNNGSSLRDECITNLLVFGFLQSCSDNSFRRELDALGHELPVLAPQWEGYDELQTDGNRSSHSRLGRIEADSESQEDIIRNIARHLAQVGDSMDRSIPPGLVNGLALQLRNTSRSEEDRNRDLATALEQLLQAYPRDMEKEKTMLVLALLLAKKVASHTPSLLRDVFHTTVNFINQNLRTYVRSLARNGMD
Description: Inhibition of BFL-1 (unknown origin)/FITC-conjugated Bid BH3 peptide (unknown origin) interaction by fluorescence polarization assay

Pfeiffer = test: Antiproliferative activity against human Pfeiffer cells expressing high BCL-2/BFL-1 assessed as cell viability measured after 72 hrs by Cell Counting Kit-8 assay
MV4-11 = test: Antiproliferative activity against human MV4-11 cells expressing high BCL-2 assessed as cell viability measured after 72 hrs by Cell Counting Kit-8 assay; conditions: MV4-11, 72 h
BCL2A1/BID [2] = target: T1, BCL2A1/BID; remark: listed apart in the source
[3] = target: Induced myeloid leukemia cell differentiation protein Mcl-1/BH3-interacting domain death agonist (Homo sapiens, UniProt Q07820)
Chain of Induced myeloid leukemia cell differentiation protein Mcl-1/BH3-interacting domain death agonist (Q07820 whole entry, one chain of several, the tested form may be a part): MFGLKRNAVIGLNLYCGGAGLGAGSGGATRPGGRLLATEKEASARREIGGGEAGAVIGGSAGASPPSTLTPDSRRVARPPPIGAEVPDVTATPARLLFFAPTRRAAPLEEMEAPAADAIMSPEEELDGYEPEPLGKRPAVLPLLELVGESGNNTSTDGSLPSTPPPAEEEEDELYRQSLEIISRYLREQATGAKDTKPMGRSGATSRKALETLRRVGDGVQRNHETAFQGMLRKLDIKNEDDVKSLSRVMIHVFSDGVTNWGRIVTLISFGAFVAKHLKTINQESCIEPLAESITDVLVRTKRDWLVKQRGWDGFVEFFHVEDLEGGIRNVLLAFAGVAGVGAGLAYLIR
Description: Inhibition of MCL-1 (unknown origin)/FAM-BID (unknown origin) interaction measured by fluorescence polarization assay

Bcl-2-related protein A1 [4] = target: Bcl-2-related protein A1 (Homo sapiens, UniProt Q16548, C55A); test: Binding affinity to BFL-1 C55A mutant (unknown origin) assessed as inhibition constant by fluorescence polarization assay
Chain of Bcl-2-related protein A1 (Homo sapiens, UniProt Q16548, C55A) (Q16548 whole entry C55A): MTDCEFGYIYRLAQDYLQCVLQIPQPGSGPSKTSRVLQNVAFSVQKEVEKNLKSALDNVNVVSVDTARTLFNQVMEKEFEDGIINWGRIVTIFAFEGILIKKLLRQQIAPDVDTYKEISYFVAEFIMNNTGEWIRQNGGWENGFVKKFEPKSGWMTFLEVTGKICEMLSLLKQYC

[5] = Glutathione reactivity assessed as half life
Bcl-2-related protein A1 [6] = target: T2, Bcl-2-related protein A1 (Homo sapiens, UniProt Q16548); test: Binding affinity to wild type human BFL-1 assessed as inhibition constant by SPR assay
T2 sequence (Q16548 whole entry): T1 sequence (Q16548 whole entry)

[7] = target: Induced myeloid leukemia cell differentiation protein Mcl-1 (Homo sapiens, UniProt Q07820); test: Binding affinity to MCL-1 (unknown origin) assessed as inhibition constant by time-resolved fluorescence resonance energy transfer binding affinity assays
Chain of Induced myeloid leukemia cell differentiation protein Mcl-1 (Q07820 whole entry): as the sequence (Q07820 whole entry, one chain of several, the tested form may be a part) above

| Ki (BCL2A1/BID [2]) | Compound | further results |
| --- | --- | --- |
| 465 nM | C=CC(=O)N1CCN(c2c3ccc(-c4cccc(F)c4)cc3nn2Cc2ccccc2)CC1 | – |
| > 20000 nM | C=CC(=O)Nc1ccc2c(c1)CCC(CN1CCN(Cc3cccc(C(=O)O)c3)CC1)=C2c1ccc(Cl)cc1 | – |
| > 20000 nM | C=CC(=O)Nc1ccc2c(c1)CCC(CN1CCN(c3ccc(C(=O)O)cc3-c3ccccc3)CC1)=C2c1ccc(Cl)cc1 | – |
| 781 nM | C=CC(=O)Nc1ccc2c(c1)CCC(CN1CCN(c3ccc(C(=O)O)cc3)CC1)=C2c1ccccc1 | – |
| > 20000 nM | C=CC(=O)Nc1ccc2c(c1)CCC(CN1CCN(c3ccccc3C(=O)O)CC1)=C2c1ccc(Cl)cc1 | – |
| > 20000 nM | C=CC(=O)Nc1ccc2c(c1)CCC(CN1CCN(c3ccc(C(=O)NS(=O)(=O)c4ccccc4)cc3)CC1)=C2c1ccc(Cl)cc1 | – |
| 1170 nM | Nc1ccc2c(c1)CCC(CN1CCN(c3ccc(C(=O)NS(=O)(=O)c4ccc(NCC5CCOCC5)c([N+](=O)[O-])c4)c(Oc4cnc5[nH]ccc5c4)c3)CC1)=C2c1ccc(Cl)cc1 | IC50 (Pfeiffer): 8900 nM; IC50 (MV4-11): 4420 nM; Ki [3]: 4760 nM |
| > 20000 nM | C=CC(=O)Nc1ccc2c(c1)CCC(CN1CCN(c3ccc(C(=O)O)cc3)CC1)=C2c1cccc(Cl)c1 | – |
| 723 nM | C=CC(=O)Nc1ccc2c(c1)CCC(CN1CCN(c3ccc(C(=O)O)cc3)CC1)=C2c1cccc(OC)c1 | – |
| 145 nM | C=CC(=O)Nc1ccc2c(c1)CCC(CN1CCN(c3ccc(C(=O)O)c(Oc4cnc5c(ccn5C)c4)c3)CC1)=C2c1ccc(Cl)cc1 | – |
| > 20000 nM | C=CC(=O)Nc1ccc2c(c1)CCC(CN1CCN(c3cccc(C(=O)O)c3)CC1)=C2c1ccc(Cl)cc1 | – |
| 997 nM | O=C(CCl)Nc1ccc2c(c1)CCC(CN1CCN(c3ccc(C(=O)O)cc3)CC1)=C2c1ccc(Cl)cc1 | – |
| > 20000 nM | C=CC(=O)Nc1ccc2c(c1)CCC(CN1CCN(c3ccc(C(=O)O)cc3)CC1)=C2c1ccc(OC)cc1 | – |
| 105 nM | C=CC(=O)Nc1ccc2c(c1)CCC(CN1CCN(c3ccc(C(=O)O)c(Oc4cnc5[nH]ccc5c4)c3)CC1)=C2c1ccc(Cl)cc1CC | IC50 (Pfeiffer): 6920 nM; Ki (Bcl-2-related protein A1 [4]): 1380 nM; IC50 (MV4-11): 12600 nM; half-life [5]: 256 min; Ki [3]: 1260 nM; Ki (Bcl-2-related protein A1 [6]): 1950 nM |
| > 20000 nM | C=CC(=O)Nc1ccc2c(c1)CCC(CN1CCN(c3ccc(C(=O)O)cc3)CC1)=C2c1cccc2cc[nH]c12 | – |
| > 20000 nM | C=CC(=O)Nc1ccc2c(c1)CCC(CN1CCN(c3ccc(C(=O)O)cc3)CC1)=C2c1cccc(O)c1 | – |
| 1130 nM | CCc1cc(Cl)ccc1C1=C(CN2CCN(c3ccc(C(=O)NS(=O)(=O)c4ccc(NCC5CCOCC5)c([N+](=O)[O-])c4)c(Oc4cnc5[nH]ccc5c4)c3)CC2)CCc2cc(N)ccc21 | IC50 (Pfeiffer): 8050 nM; IC50 (MV4-11): 3690 nM; Ki [3]: 3300 nM |

| Ki (BCL2A1/BID [2]) | Compound | further results |
| --- | --- | --- |
| 326 nM | C=CC(=O)N(C)Cc1ccc2c(c1)CCC(CN1CCN(c3ccc(C(=O)O)cc3)CC1)=C2c1ccc(Cl)cc1 | – |
| 251 nM | C=CC(=O)Nc1ccc2c(c1)CCC(CN1CCN(c3ccc(C(=O)O)cc3)CC1)=C2c1ccc(Cl)cc1C | – |
| 110 nM | C=CC(=O)N(CC)c1ccc2c(c1)CCC(CN1CCN(c3ccc(C(=O)O)cc3)CC1)=C2c1ccc(Cl)cc1CC | IC50 (Pfeiffer): 22900 nM; IC50 (MV4-11): 33500 nM |
| 774 nM | C=CC(=O)Nc1ccc2c(c1)CCC(CN1CCN(c3ccc(C(=O)O)c(N(C)CCCN(C)C)c3)CC1)=C2c1ccc(Cl)cc1 | – |
| > 20000 nM | C=CC(=O)Nc1ccc2c(c1)CCC(CN1CCN(Cc3ccc(C(=O)O)cc3)CC1)=C2c1ccc(Cl)cc1 | – |
| 370 nM | C=CC(=O)Nc1ccc2c(c1)CCC(CN1CCN(c3ccc(C(=O)O)c(-c4ccncc4)c3)CC1)=C2c1ccc(Cl)cc1 | – |
| 959 nM | C=CC(=O)Nc1ccc2c(c1)CCC(CN1CCN(c3ccc(C(=O)O)cc3)CC1)=C2c1ccc(Cl)cc1OC | – |
| 409 nM | C=CC(=O)Nc1ccc2c(c1)CCC(CN1CCN(c3ccc(C(=O)O)cc3)CC1)=C2c1ccccc1Cl | – |
| > 20000 nM | C=CC(=O)Nc1ccc2c(c1)CCC(CN1CCN(c3ccc(C(=O)O)cc3)CC1)=C2c1ccn[nH]1 | – |
| 218 nM | C=CC(=O)N(C)c1ccc2c(c1)CCC(CN1CCN(c3ccc(C(=O)O)cc3)CC1)=C2c1ccc(Cl)cc1CC | – |
| > 20000 nM | C=CC(=O)Nc1ccc2c(c1)CCC(CN1CCN(c3ccc(C(=O)O)cc3-c3ccncc3)CC1)=C2c1ccc(Cl)cc1 | – |
| > 20000 nM | C=CC(=O)Nc1ccc2c(c1)CCC(CN1CCN(c3ccc(C(=O)O)cc3)CC1)=C2Br | – |
| 124 nM | C=CC(=O)N(CCC)c1ccc2c(c1)CCC(CN1CCN(c3ccc(C(=O)O)cc3)CC1)=C2c1ccc(Cl)cc1CC | Ki [3]: 4400 nM |
| 525 nM | C=CC(=O)Nc1ccc2c(c1)CCC(CN1CCN(c3ccc(C(=O)O)cc3)CC1)=C2c1ccc(Cl)cc1 | – |
| 913 nM | C=CC(=O)NCc1ccc2c(c1)CCC(CN1CCN(c3ccc(C(=O)O)cc3)CC1)=C2c1ccc(Cl)cc1 | – |
| > 20000 nM | C=CC(=O)Nc1ccc2c(c1)CCC(CN1CCN(c3ccc(C(=O)O)cc3)CC1)=C2c1ccc(C(=O)O)cc1 | – |

More lines, now with the values behind:

| Compound | Ki (BCL2A1/BID [2]) | further results |
| --- | --- | --- |
| CN1CCN(C2=C(Cl)C(=O)N(c3ccc(Cl)c(Cl)c3)C2=O)CC1 | – | IC50 (BCL2A1/BID [1]): 400 nM |
| CCOC(=O)CS(=O)(=O)c1nc(-c2ccc(F)cc2)cc(C(F)(F)F)n1 | – | IC50 (BCL2A1/BID [1]): 2600 nM |
| CC(C)(C)c1ccc(CN2CCN(S(=O)(=O)Nc3ccc(SCCc4ccccc4)cc3C(=O)O)CC2)cc1 | 645 nM | IC50 (Pfeiffer): 21300 nM; IC50 (MV4-11): 46200 nM |
| CC(=O)N[C@@H](Cc1c[nH]c2ccccc12)C(=O)NCCSSCCN(C)C | – | EC50 (BCL2A1/BID [1]): 1300 nM |
| C=CC(=O)Nc1ccc2c(c1)CCC(CN1CCN(c3ccc(C(=O)O)cc3)CC1)=C2c1ccc(C#N)cc1 | > 20000 nM | – |
| C=CC(=O)N(C)c1ccc2c(c1)CCC(CN1CCN(c3ccc(C(=O)O)cc3)CC1)=C2c1ccc(Cl)cc1 | 373 nM | – |
| C=CC(=O)Nc1ccc2c(c1)CCC(CN1CCN(c3ccc(C(=O)O)cc3)CC1)=C2c1ccc(NC(C)=O)cc1 | > 20000 nM | – |
| C=CC(=O)Nc1ccc2c(c1)CCC(CN1CCN(c3ccc(C(=O)O)cc3)CC1)=C2c1ccc(Cl)cc1Cl | 256 nM | – |
| C=CC(=O)Nc1ccc2c(c1)CCC(CN1CCN(c3ccc(C(=O)O)cc3)CC1)=C2c1ccc(Cl)cc1F | 361 nM | – |
| C=CC(=O)Nc1ccc2c(c1)CCC(CN1CCN(c3ccc(C(=O)NS(=O)(=O)c4ccc(NCC5CCOCC5)c([N+](=O)[O-])c4)c(Oc4cnc5[nH]ccc5c4)c3)CC1)=C2c1ccc(Cl)cc1 | > 20000 nM | IC50 (Pfeiffer): 7500 nM; IC50 (MV4-11): 1790 nM; Ki [3]: 4160 nM |
| C=CC(=O)Nc1ccc2c(c1)CCC(CN1CCN(c3ccc(C(=O)O)cc3)CC1)=C2c1ccccc1OC | > 20000 nM | – |
| C=CC(=O)N(c1ccc2c(c1)CCC(CN1CCN(c3ccc(C(=O)O)cc3)CC1)=C2c1ccc(Cl)cc1CC)C(C)C | 140 nM | – |
| C=CC(=O)Nc1ccc2c(c1)CCC(CN1CCN(c3ccc(C(=O)O)cc3)CC1)=C2c1cnn(C)c1 | > 20000 nM | – |
| C=CC(=O)Nc1ccc2c(c1)CCC(CN1CCNCC1)=C2c1ccc(Cl)cc1 | > 20000 nM | – |
| C=CC(=O)Nc1ccc2c(c1)CCC(CN1CCN(c3ccc(C(=O)O)c(N(C)CCCO)c3)CC1)=C2c1ccc(Cl)cc1 | > 20000 nM | – |
| C=CC(=O)Nc1ccc2c(c1)CCC(CN1CCN(c3ccc(C(=O)NS(=O)(=O)c4ccc(NCC5CCOCC5)c([N+](=O)[O-])c4)c(Oc4cnc5[nH]ccc5c4)c3)CC1)=C2c1ccc(Cl)cc1CC | 949 nM | IC50 (Pfeiffer): 7280 nM; IC50 (MV4-11): 2350 nM; Ki [3]: 4510 nM |
| C=CC(=O)Nc1ccc2c(c1)CCC(CN1CCN(c3ccc(C(=O)O)cc3)CC1)=C2C1CC1 | > 20000 nM | – |
| C=CC(=O)Nc1ccc2c(c1)CCC(CN1CCN(c3ccc(C(=O)O)cc3)CC1)=C2c1ccncc1 | 5340 nM | – |
| C=CC(=O)Nc1ccc2c(c1)CCC(CN1CCN(c3ccc(C(=O)O)cc3)CC1)=C2c1ccc(O)cc1 | > 20000 nM | – |
| C=CC(=O)Nc1ccc2c(c1)CCC(CN1CCN(c3ccc(C(=O)O)c(-c4ccccc4)c3)CC1)=C2c1ccc(Cl)cc1 | 178 nM | – |
| C=CC(=O)Nc1ccc2c(c1)CCC(CN1CCN(c3ccc(C(=O)O)c(Oc4cnc5[nH]ccc5c4)c3)CC1)=C2c1ccc(Cl)cc1 | 127 nM | IC50 (Pfeiffer): 10600 nM; IC50 (MV4-11): 19900 nM; Ki [3]: 2360 nM |
| C=CC(=O)N(CC)Cc1ccc2c(c1)CCC(CN1CCN(c3ccc(C(=O)O)cc3)CC1)=C2c1ccc(Cl)cc1 | 335 nM | – |
| C=CC(=O)Nc1ccc2c(c1)CCC(CN1CCN(c3ccc(C(=O)O)cc3)CC1)=C2c1cn[nH]c1 | > 20000 nM | – |
| C=CC(=O)Nc1ccc2c(c1)CCC(CN1CCN(c3ccc(C(=O)OCC)cc3)CC1)=C2c1ccc(Cl)cc1 | > 20000 nM | – |
| C=CC(=O)Nc1ccc2c(c1)CCC(CN1CCN(c3ccc(C(=O)O)cc3)CC1)=C2c1ccc(Cl)cc1CC | 158 nM | – |
| CN(C)C/C=C/C(=O)Nc1cc2c(Nc3ccc(F)c(Cl)c3)ncnc2cc1O[C@H]1CCOC1 [AFATINIB] | – | half-life [5]: 13.2 min |
| C=CC(=O)Nc1cc(Nc2nccc(-c3cn(C)c4ccccc34)n2)c(OC)cc1N(C)CCN(C)C [OSIMERTINIB] | – | half-life [5]: 30.6 min |
| CC1(C)CCC(CN2CCN(c3ccc(C(=O)NS(=O)(=O)c4ccc(NCC5CCOCC5)c([N+](=O)[O-])c4)c(Oc4cnc5[nH]ccc5c4)c3)CC2)=C(c2ccc(Cl)cc2)C1 [VENETOCLAX] | – | Ki [7]: > 444 nM; IC50 (Pfeiffer): 6260 nM; IC50 (MV4-11): 440 nM; Ki [3]: 3750 nM |
